Laboratory results as given in patent US6884577B2, “Methods for screening compounds for estrogenic activity” (The Regents of the University of California, priority 1993, dated 2005).

How the values were obtained:
MCF-7 cell = details: Braacke et al. 1991; cited from earlier work
[1] = tested on: CHO cells, which lack functioning ER; test: Negative control: estrogen-responsive reporter constructs in CHO cells which lack functioning ER; type: cell-based; details: same estrogen-responsive reporter constructs
Text: To examine whether the series 4 compounds induce estrogenic activity through the ER, we tested the ability of ICI 164384 to inhibit the series 4 estrogenic activity. […] As a negative control, CHO cells, which lack functioning ER, were transfected with the same estrogen-responsive reporter constructs and treated with 17β-estradiol and the series 4 hydroxystilbenes.

[2] = tested on: human ER at the AP-1 site (collagenase promoter, AP-1-tk), HeLa cells; test: CAT assays of HeLa cells transfected with AP-1 site reporter genes and human ER expression vector; type: cell-based; details: transiently expressed human ER, FIG. 2A
Description: Representations, at left, show the human collagenase promoter (shaded) and the consensus AP-1 site. […] CAT activity is normalized to a transfection control with the actin promoter driving expression of βHCG. Single representative experiments are shown, error bars represent standard deviation of triplicate hormone treatments.
(§1) Cells were maintained and transfected as previously described in Webb et al., supra. […] F9 cells were seeded at 30% confluence upon 1.5 cm dishes and transfected overnight by calcium phosphate coprecipitation with 5 μg reporter gene, 1 μg actin β-HCG, and 1 μg of HEO, 300 ng each of c-jun and c-fos expression vectors. The cells were glycerol shocked and refed in growth medium containing hormone or ethanolic vehicle.
(§2) CAT assays were carried out as described in Webb et al., except that the cells were harvested one to two days after transfection instead of three. CAT activities were defined as the increase in cpm per hour at room temperature (corrected for background) per 100 μl of cell extract, normalized to production of 100 standard units of βHCG, from a co-transfected reporter gene, actin-HCG. […] Light units were defined as the luciferase activity per 100 μl of cell extract per 100 standard units of βHCG. Relative luciferase activities were calculated with respect to the results that were obtained in the absence of ER and hormone, which was set at 1 unit. For the data presented in Table I triplicate points were determined.
To further examine the effects of antiestrogens on the AP-1 directed pathway, reporter genes derived from the human collagenase promoter were transfected into HeLa cells.

[3] = tested on: human ER at the AP-1 site of the collagenase promoter (coll73); test: Coll73-LUC luciferase reporter (collagenase promoter with AP-1 site) in cells transfected with human ER expression vector HEO; type: cell-based; details: relative to no ER
Description: All reporter genes described below have been modified by digestion with EcoR I and Ndel to remove a AP-I site in the backbone of pUG. […] Coll73-LUC was constructed by cloning a BamHI/Pvull fragment, that spanned the luciferase transcription unit, from pMG3 into coll73, which had been digested with BamHI and SmaI to remove the CAT transcription unit.
as §1, §2
In each case, the cells were transfected with different amounts of the human ER expression vector HEO to determine the optimal response.

[4] = tested on: ER at the AP1 site of the human collagenase promoter, ERC1 cells; test: Collagenase promoter-CAT reporters (Δcoll73, Δcoll60) in ERC1 cells; type: cell-based
Description: FIGS. 1A and 1B show estrogen stimulation mediated by an AP1 site in ERC1 cells (FIG. 1A) and F9 cells (FIG. 1B). Typical results of CAT assays, normalized for transfection efficiency, following a single transfection are shown opposite. Each point is the mean value of triplicate assays, with standard errors. CAT activities from cells maintained in the absence of hormone are shown as white bars, those in the presence of a saturating concentration (100 nM) of estradiol as black bars.
CAT assays were carried out as described in Webb et al., except that the cells were harvested one to two days after transfection instead of three. CAT activities were defined as the increase in cpm per hour at room temperature (corrected for background) per 100 μl of cell extract, normalized to production of 100 standard units of βHCG, from a co-transfected reporter gene, actin-HCG. Luciferase assays were performed as described by Brasier et al. Methods Enzymol 216:386-97 (1992)) on similar extracts that were used for CAT assays. Light units were defined as the luciferase activity per 100 μl of cell extract per 100 standard units of βHCG. Relative luciferase activities were calculated with respect to the results that were obtained in the absence of ER and hormone, which was set at 1 unit. For the data presented in Table I triplicate points were determined. Standard deviations were less than 20%. […]

[5] = tested on: ER at the AP1 site of the collagenase promoter, F9 cells; test: Δcoll73 CAT reporter in F9 cells with transiently transfected ER; type: cell-based, human; details: no c-Jun/c-fos, FIG. 1B
Text: Cells were maintained and transfected as previously described in Webb et al., supra. […] […] The cells were glycerol shocked and refed in growth medium containing hormone or ethanolic vehicle.

[6] = tested on: ER at classical ERE, Ishikawa cells; test: ERE-coll60CAT reporter in Ishikawa cells; type: cell-based
Description: Left panel, coll73-CAT response with endogenous ER contrasted with the response of an ERE regulated reporter, ERE-coll60CAT. […] Averages of three individual experiments are shown. […] A single representative experiment with triplicate hormone treatments is shown.
To further explore this phenomenon, and to test whether similar hormone effects could be detected at physiological levels of ER, the expression of the collagenase promoter in cells that express endogenous ER was examined.

C[C@]12CC[C@@H]3c4ccc(O)cc4CC[C@H]3[C@@H]1CC[C@@H]2O [estradiol, 17β-estradiol]
MCF-7 cell invasion activity of a re-constituted basement membrane (MCF-7 cell): stimulated
estrogenic activity in cells lacking functioning ER [1]: no estrogenic activity
activation of the collagenase promoter (coll517, coll73) [2]: activated
Coll73 Luciferase Activity ([3]; CEF (fibroblast), no hormone, saturating hormone): 2.5
Coll73 Luciferase Activity ([3]; CHO (ovary), no hormone, saturating hormone): 3.3
Coll73 Luciferase Activity ([3]; CV-1 (kidney), no hormone, saturating hormone): 2.2
Coll73 Luciferase Activity ([3]; F9 (teratocarcinoma), no hormone, unliganded ER gave 3.2): 1.4
Coll73 Luciferase Activity ([3]; HELA (cervix), no hormone = 1, ICI 1 μM, tamoxifen 5 μM, estradiol 100 nM): 3.4
Coll73 Luciferase Activity ([3]; HEP G2 (liver), no hormone, saturating hormone): 4.3
Coll73 Luciferase Activity ([3]; MDA453 (breast), no hormone, saturating hormone): 8.4
Coll73 Luciferase Activity ([3]; NIH 3T3 (fibroblast), no hormone, saturating hormone): 3.3
Coll73 Luciferase Activity ([3]; SHM (myometrium), no hormone, saturating hormone): 2.0
Coll73 Luciferase Activity ([3]; SY5Y (neuroblastoma), no hormone, saturating hormone): 2.1
estrogen response of Δcoll60 (AP1 site removed) [4]: no estrogen response
stimulation of Δcoll73 (CAT) ([4]; 100 nM estradiol, FIG. 1A): ten fold
estrogen response of Δcoll73 [5]: failed to respond
expression of ERE-coll60 [6]: tenfold
